Results on 52 compounds are retold here after US12139475B2, “2-oxindole compounds” (CHEMOCENTRYX, INC., priority 2016, dated 2024).

The test concerns the target T1, CCR(9) (Homo sapiens, UniProt P51686).
T1 construct: MOLT-4 cells were collected by centrifugation at 400×g at room temperature, then suspended at 50 million/ml in human serum; host or cells: MOLT-4
T1 sequence (P51686 1-369): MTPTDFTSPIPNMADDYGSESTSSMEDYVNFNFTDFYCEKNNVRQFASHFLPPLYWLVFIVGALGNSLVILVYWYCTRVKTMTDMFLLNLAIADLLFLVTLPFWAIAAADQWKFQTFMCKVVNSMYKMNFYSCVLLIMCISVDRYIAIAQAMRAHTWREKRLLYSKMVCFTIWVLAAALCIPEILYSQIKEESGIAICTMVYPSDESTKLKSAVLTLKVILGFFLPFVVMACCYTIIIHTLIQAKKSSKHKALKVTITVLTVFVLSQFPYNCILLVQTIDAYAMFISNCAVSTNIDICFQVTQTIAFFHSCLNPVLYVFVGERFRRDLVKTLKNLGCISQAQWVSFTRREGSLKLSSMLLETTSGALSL
In words: Serum chemotaxis assay (MOLT-4 cells, TECK-induced migration, ChemoTX). The class given is cell-based. The following applies: MOLT-4 cells in human serum, migration to recombinant human TECK, 90 minutes at 37° C. The protocol:
MOLT-4 cells were obtained from the American Type Culture Collection (Manassas, VA) and cultured in RPMI tissue culture medium supplemented with 10% fetal calf serum (FCS) in a humidified 5% CO2 incubator at 37° C. Recombinant human chemokine proteins TECK was obtained from R&D Systems (Minneapolis, MN). ChemoTX™ chemotaxis microchambers were purchased from Neuro Probe (Gaithersburg, MD). CyQUANT™ cell proliferation kits were purchased from Molecular Probes (Eugene, Oregon). Calcium indicator dye Fluo-4 AM was purchased from Molecular Devices (Mountain View, CA).
A serum chemotaxis assay was used to determine the efficacy of potential receptor antagonists at blocking the migration mediated through chemokine receptors, such as CCR(9). This assay was performed using the ChemoTX® microchamber system with a 5-μm pore-sized polycarbonate membrane. MOLT-4 cells were collected by centrifugation at 400×g at room temperature, then suspended at 50 million/ml in human serum, containing 50 mM HEPES (final pH of 7.2). The compound being tested or an equivalent volume of its solvent (DMSO) was then added to the cell/serum mixture at a final DMSO concentration of 0.125% (v/v), and this mixture was then incubated together at 37° C. for one hour. Separately, recombinant human TECK was diluted with chemotaxis buffer (HBSS+0.1% BSA), generally spanning a range from 0.1 nM to 500 nM, after which 29 μl of diluted chemokine was placed in the lower wells of the ChemoTX® plate. The 5-μm (pore size) polycarbonate membrane was placed onto the plate, and 20 μL of the cell/compound mixture was transferred onto each well of the membrane. The plates were incubated at 37° C. for 90 minutes, after which the polycarbonate membranes were removed and 5 μl of the DNA-intercalating agent CyQUANT (Invitrogen, Carlsbad, CA) was added to the lower wells. The amount of fluorescence, corresponding to the number of migrated cells, was measured using a Spectrafluor Plus plate reader (TECAN, San Jose, CA).
The A2 values were calculated from the following equation, comparing the efficacy of the test compound with that of the DMSO-only control at equi-active chemokine levels: Log(A2)=log[drug(M)]−log[(A′/A)−1] where A reflects the potency of the agonist in the absence of antagonist and A′ reflects the potency of the agonist in the presence of antagonist at a given concentration of drug ([drug(M)]). In Vivo Efficacy Models for Human IBD

Consider `Cc1ccc2c(c1)N(c1ccc(C(=O)O)cc1)C(=O)C2(C)c1ccc(C(C)(C)C)cc1` (stereo not shown), for which the “Chemotaxis A2” value is recorded as “++ (500 nM > A2 ≥ 100 nM)”.
`CC(C)(C)c1ccc(C2(C)C(=O)N(c3ccc(C(=O)O)cc3)c3ccc(Cl)cc32)cc1` (stereo not shown): the “Chemotaxis A2” value is “+++ (100 nM > A2)”.
On to `CC(C)(C)c1ccc(C2(C)C(=O)N(c3cccc(C(=O)O)c3)c3cc(Cl)ccc32)cc1` (stereo not shown), for which the “Chemotaxis A2” value was “++ (500 nM > A2 ≥ 100 nM)”.
Turning to `Cc1cc(C(C)(C)C)ccc1C1(C)C(=O)N(c2ccc(C(=O)O)cc2)c2ccc(Cl)cc21` (stereo not shown), the “Chemotaxis A2” value was “++ (500 nM > A2 ≥ 100 nM)”.
As for `Cc1cc(C(C)(C)C)ccc1C1(C)C(=O)N(c2cccc(C(=O)O)c2)c2ccc(Cl)cc21` (stereo not shown), the entry is “+++ (100 nM > A2)”; as for `CC(C)Oc1ccc(C2(C)C(=O)N(c3cccc(C(=O)O)c3)c3ccc(Cl)cc32)cc1` (stereo not shown), “+++ (100 nM > A2)”; as for `CC(C)(C)c1ccc(C2(C)C(=O)N(c3cccc(C(=O)O)c3)c3c(Cl)cc(Cl)cc32)cc1` (stereo not shown), “+ (20000 nM ≥ A2 ≥ 500 nM)”.
As for `CC(C)(C)c1ccc(C2(C)C(=O)N(c3ccccc3C(=O)O)c3ccc(Cl)cc32)cc1` (stereo not shown), the entry is “++ (500 nM > A2 ≥ 100 nM)”.
As for `Cc1ccc2c(c1)C(C)(c1ccc(C(C)(C)C)c(F)c1)C(=O)N2c1cccc(C(=O)O)c1` (stereo not shown), the entry is “+++ (100 nM > A2)”; as for `CC(C)(C)c1ccc(C2(C)C(=O)N(c3cccc(C(=O)O)c3)c3cc(Cl)ccc32)cc1F` (stereo not shown), “+ (20000 nM ≥ A2 ≥ 500 nM)”; as for `CC(C)Oc1ccc(C2(C)C(=O)N(c3ccc(C(=O)O)cc3)c3ccc(Cl)cc32)cc1` (stereo not shown), “+++ (100 nM > A2)”.
Take `CC(C)(C)c1ccc(C2(C)C(=O)N(c3ccc(C(=O)O)c(F)c3)c3ccc(Cl)cc32)cc1` (stereo not shown): the “Chemotaxis A2” value is on record as “++ (500 nM > A2 ≥ 100 nM)”.
As for `CC(C)(C)c1ccc(C2(C)C(=O)N(c3cc(F)cc(C(=O)O)c3)c3ccc(Cl)cc32)cc1` (stereo not shown), the entry is “+++ (100 nM > A2)”; as for `Cc1ccc2c(c1)N(c1cccc(C(=O)O)c1)C(=O)C2(C)c1ccc(C(C)(C)C)c(F)c1` (stereo not shown), “++ (500 nM > A2 ≥ 100 nM)”; as for `Cc1ccc2c(c1)N(c1cccc(C(=O)O)c1)C(=O)C2(C)c1ccc(C(C)(C)C)cc1` (stereo not shown), “++ (500 nM > A2 ≥ 100 nM)”.
`CC(C)(C)c1ccc(C2(C)C(=O)N(c3cc(C(=O)O)ccc3F)c3ccc(Cl)cc32)cc1` (stereo not shown): the “Chemotaxis A2” value was “++ (500 nM > A2 ≥ 100 nM)”.
As for `CC(C)(C)c1ccc(C2(C)C(=O)N(c3ccnc(C(=O)O)c3)c3ccc(Cl)cc32)cc1` (stereo not shown), the entry is “++ (500 nM > A2 ≥ 100 nM)”; as for `CC(C)(C)c1ccc(C2(C)C(=O)N(c3cncc(C(=O)O)c3)c3ccc(Cl)cc32)cc1` (stereo not shown), “++ (500 nM > A2 ≥ 100 nM)”.
For `CC(C)(C)c1ccc(C2(C)C(=O)N(c3cc(C(=O)O)ccn3)c3ccc(Cl)cc32)cc1` (stereo not shown) the value was “+++ (100 nM > A2)”; for `CC(C)(C)c1ccc(C2(C)C(=O)N(c3cccc(C(=O)O)n3)c3ccc(Cl)cc32)cc1` (stereo not shown), “++ (500 nM > A2 ≥ 100 nM)”.
For `CC1(c2ccc(Cl)cc2)C(=O)N(c2cccc(C(=O)O)c2)c2ccc(Cl)cc21` (stereo not shown), the “Chemotaxis A2” value is reported as “+ (20000 nM ≥ A2 ≥ 500 nM)”.
For `COc1ccc(C2(C)C(=O)N(c3cccc(C(=O)O)c3)c3ccc(Cl)cc32)cc1F` (stereo not shown) the value was “+ (20000 nM ≥ A2 ≥ 500 nM)”; for `CC(C)(O)c1ccc(C2(C)C(=O)N(c3cccc(C(=O)O)c3)c3ccc(Cl)cc32)cc1` (stereo not shown), “++ (500 nM > A2 ≥ 100 nM)”; for `CC(C)(C)c1ccc(C2(C)C(=O)N(c3ccc(C(=O)O)cc3F)c3ccc(Cl)cc32)cc1` (stereo not shown), “++ (500 nM > A2 ≥ 100 nM)”.
For the compound `CC(C)(C)c1ccc(C2(C)C(=O)N(c3cccc(C(=O)O)c3F)c3ccc(Cl)cc32)cc1` (stereo not shown), the “Chemotaxis A2” value is listed as “+++ (100 nM > A2)”.
For `CC(C)(F)c1ccc(C2(C)C(=O)N(c3cccc(C(=O)O)c3)c3ccc(Cl)cc32)cc1` (stereo not shown) the value was “++ (500 nM > A2 ≥ 100 nM)”; for `CC1(c2ccc(C(C)(O)C(F)(F)F)cc2)C(=O)N(c2cccc(C(=O)O)c2)c2ccc(Cl)cc21` (stereo not shown), “++ (500 nM > A2 ≥ 100 nM)”; for `CC(C)(C)c1ccc(C2(C)C(=O)N(c3cccc(C(=O)O)c3)c3ccc(OC(F)(F)F)cc32)cc1` (stereo not shown), “+++ (100 nM > A2)”.
As for `CC1(c2ccc(C3(C(F)(F)F)CC3)cc2)C(=O)N(c2cccc(C(=O)O)c2)c2ccc(Cl)cc21` (stereo not shown), the entry is “+++ (100 nM > A2)”; as for `CC1(c2ccc(C3(C#N)CC3)cc2)C(=O)N(c2cccc(C(=O)O)c2)c2ccc(Cl)cc21` (stereo not shown), “++ (500 nM > A2 ≥ 100 nM)”; as for `CC1(c2ccc(C3(C)C(=O)N(c4cccc(C(=O)O)c4)c4ccc(Cl)cc43)cc2)CC1` (stereo not shown), “+++ (100 nM > A2)”.
For `Cc1cc(C2(C)C(=O)N(c3cccc(C(=O)O)c3)c3ccc(Cl)cc32)ccc1OC(C)C` (stereo not shown), the “Chemotaxis A2” value was “++ (500 nM > A2 ≥ 100 nM)”.
As for `CC1(c2ccc(C(C)(C)C(C)(F)F)cc2)C(=O)N(c2cccc(C(=O)O)c2)c2ccc(Cl)cc21` (stereo not shown), the entry is “+ (20000 nM ≥ A2 ≥ 500 nM)”.
As for `CC1(C)CCc2cc(C3(C)C(=O)N(c4cccc(C(=O)O)c4)c4ccc(OC(F)(F)F)cc43)ccc2O1` (stereo not shown), the “Chemotaxis A2” value is listed as “+++ (100 nM > A2)”.
For `CC1(C)CCc2cc(C3(C)C(=O)N(c4cccc(C(=O)O)c4)c4ccc(C#N)cc43)ccc2O1` (stereo not shown) the value was “+++ (100 nM > A2)”; for `CC1(C)CCc2cc(C3(C)C(=O)N(c4cccc(C(=O)O)c4)c4ccc(C5CC5)cc43)ccc2O1` (stereo not shown), “+++ (100 nM > A2)”.
For `CCc1ccc2c(c1)C(C)(c1ccc3c(c1)CCC(C)(C)O3)C(=O)N2c1cccc(C(=O)O)c1` (stereo not shown) the value was “+++ (100 nM > A2)”; for `CC1(C)Cc2cc(C3(C)C(=O)N(c4cccc(C(=O)O)c4)c4ccc(Cl)cc43)ccc2O1` (stereo not shown), “+++ (100 nM > A2)”; for `Cc1cc(C2(C)C(=O)N(c3cccc(C(=O)O)c3)c3ccc(Cl)cc32)ccc1C(C)(C)C` (stereo not shown), “++ (500 nM > A2 ≥ 100 nM)”.
Turning to `CC1(C)CCc2cc(C3(C)C(=O)N(c4cccc(C(=O)O)c4)c4cc(Cl)c(OC(F)(F)F)cc43)ccc2O1` (stereo not shown), the “Chemotaxis A2” value was “+++ (100 nM > A2)”.
As for `CC1(C)CCc2cc(C3(C)C(=O)N(c4cccc(C(=O)O)c4)c4cc(Cl)c(Cl)cc43)ccc2O1` (stereo not shown), the entry is “+++ (100 nM > A2)”.
As to `CC1(C)CCc2cc([C@]3(C)C(=O)N(c4ccccc4CC(=O)O)c4ccc(Cl)cc43)ccc2O1`, the “Chemotaxis A2” value is on record as “+++ (100 nM > A2)”.
As for `CC(C)COc1ccc(N2C(=O)[C@@](C)(c3ccc4c(c3)CCC(C)(C)O4)c3cc(Cl)ccc32)cc1C(=O)O`, the entry is “+++ (100 nM > A2)”.
As for `CC1(C)CCc2cc([C@]3(C)C(=O)N(Cc4cc(Cl)ccc4C(=O)O)c4ccc(Cl)cc43)ccc2O1`, the entry is “+++ (100 nM > A2)”.
For `CC1(C)CCc2cc([C@]3(C)C(=O)N(c4cc(Cl)cc(C(=O)O)c4)c4ccc(Cl)cc43)ccc2O1` the value was “+++ (100 nM > A2)”; for `CC1(C)CCc2cc([C@]3(C)C(=O)N(Cc4cccc(Cl)c4C(=O)O)c4ccc(Cl)cc43)ccc2O1`, “+++ (100 nM > A2)”.
As for `COc1cccc(C(=O)O)c1CN1C(=O)[C@@](C)(c2ccc3c(c2)CCC(C)(C)O3)c2cc(Cl)ccc21`, the “Chemotaxis A2” value was “++ (500 nM > A2 ≥ 100 nM)”.
With `COc1cccc(CN2C(=O)[C@@](C)(c3ccc4c(c3)CCC(C)(C)O4)c3cc(Cl)ccc32)c1C(=O)O`, the “Chemotaxis A2” value is “+++ (100 nM > A2)”.
As for `CC1(C)CCc2cc([C@]3(C)C(=O)N(c4cc(F)cc(C(=O)O)c4)c4ccc(Cl)cc43)ccc2O1`, the entry is “+++ (100 nM > A2)”; as for `COc1ccc(C(=O)O)c(CN2C(=O)[C@@](C)(c3ccc4c(c3)CCC(C)(C)O4)c3cc(Cl)ccc32)c1`, “+++ (100 nM > A2)”.
As for `CC1(C)CCc2cc([C@]3(C)C(=O)N(c4cc(C#N)cc(C(=O)O)c4)c4ccc(Cl)cc43)ccc2O1`, the entry is “++ (500 nM > A2 ≥ 100 nM)”.
Regarding `COc1c(C)cc(N2C(=O)[C@@](C)(c3ccc4c(c3)CCC(C)(C)O4)c3cc(Cl)ccc32)cc1C(=O)O`, the “Chemotaxis A2” value is “+++ (100 nM > A2)”.
